Experimental data published in paper PMC8209656 (The Journal of endocrinology, 2010).

Key:
Assay in all cases: ethoxyresorufin-O-deethylase fluorescence, recombinant membranes
Type in all cases: biochemical
Conditions in all cases: 30 °C; human CPR co-expressed
CYP1C2 = biological target: T1, CYP1C2 (Danio rerio, UniProt A0AC58HLV5)
T1 sequence (A0AC58HLV5 1-514): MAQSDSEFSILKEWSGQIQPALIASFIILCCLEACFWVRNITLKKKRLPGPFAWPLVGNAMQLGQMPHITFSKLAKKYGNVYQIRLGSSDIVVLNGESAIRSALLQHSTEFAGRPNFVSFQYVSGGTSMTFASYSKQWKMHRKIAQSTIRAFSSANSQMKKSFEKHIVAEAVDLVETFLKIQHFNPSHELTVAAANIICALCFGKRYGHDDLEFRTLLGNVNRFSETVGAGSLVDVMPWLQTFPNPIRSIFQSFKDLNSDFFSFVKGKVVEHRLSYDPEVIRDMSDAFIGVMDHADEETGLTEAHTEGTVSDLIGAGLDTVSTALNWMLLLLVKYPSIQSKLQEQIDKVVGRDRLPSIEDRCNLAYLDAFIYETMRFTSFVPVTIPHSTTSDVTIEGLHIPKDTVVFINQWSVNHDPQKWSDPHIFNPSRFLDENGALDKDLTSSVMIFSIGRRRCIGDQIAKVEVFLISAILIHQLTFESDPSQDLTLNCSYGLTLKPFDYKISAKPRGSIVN

CYP1C1 = biological target: T2, CYP1C1 (Danio rerio, UniProt A0A8M1N631)
T2 sequence (A0A8M1N631 13-523): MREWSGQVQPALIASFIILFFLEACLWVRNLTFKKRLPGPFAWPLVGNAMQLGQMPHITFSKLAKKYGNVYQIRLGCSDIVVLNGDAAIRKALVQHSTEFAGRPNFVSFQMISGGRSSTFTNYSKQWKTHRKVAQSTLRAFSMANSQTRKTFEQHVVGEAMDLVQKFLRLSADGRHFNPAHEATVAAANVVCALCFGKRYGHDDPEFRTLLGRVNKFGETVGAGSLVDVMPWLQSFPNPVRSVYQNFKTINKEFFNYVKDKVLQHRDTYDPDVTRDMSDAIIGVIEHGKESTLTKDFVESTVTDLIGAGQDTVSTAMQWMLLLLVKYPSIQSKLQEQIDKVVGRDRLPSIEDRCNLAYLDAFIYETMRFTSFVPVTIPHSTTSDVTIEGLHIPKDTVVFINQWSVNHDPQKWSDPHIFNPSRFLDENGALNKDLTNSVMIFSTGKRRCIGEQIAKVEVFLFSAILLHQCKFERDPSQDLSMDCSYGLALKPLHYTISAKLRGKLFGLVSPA

CYP1B1 = biological target: T3, CYP1B1 (Danio rerio, UniProt Q1JQ70)
T3 sequence (Q1JQ70 1-526): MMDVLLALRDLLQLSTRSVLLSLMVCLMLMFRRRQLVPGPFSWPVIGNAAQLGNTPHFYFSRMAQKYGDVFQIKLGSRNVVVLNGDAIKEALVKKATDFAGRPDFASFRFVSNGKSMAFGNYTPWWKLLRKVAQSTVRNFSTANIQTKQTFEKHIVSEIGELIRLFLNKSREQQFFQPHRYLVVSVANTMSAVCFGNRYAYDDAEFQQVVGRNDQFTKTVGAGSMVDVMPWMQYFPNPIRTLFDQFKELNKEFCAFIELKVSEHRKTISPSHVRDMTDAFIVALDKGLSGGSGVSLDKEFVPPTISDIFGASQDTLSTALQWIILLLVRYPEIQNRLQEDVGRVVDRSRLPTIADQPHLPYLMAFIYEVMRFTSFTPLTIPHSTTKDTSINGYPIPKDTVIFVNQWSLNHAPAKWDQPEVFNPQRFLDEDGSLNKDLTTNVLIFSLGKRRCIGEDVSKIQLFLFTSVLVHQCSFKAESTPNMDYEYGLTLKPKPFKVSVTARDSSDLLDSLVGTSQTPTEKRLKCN

CCOc1ccc2nc3ccc(=O)cc-3oc2c1 [7-ethoxyresorufin]
ethoxyresorufin-O-deethylase fluorescence, recombinant membranes (CYP1C2): All CYP1s showed catalytic activity for 7-ER and BFC except for CYP1D1 and CYP3A65 | ethoxyresorufin-O-deethylase fluorescence, recombinant membranes (CYP1C1): All CYP1s showed catalytic activity for 7-ER and BFC except for CYP1D1 and CYP3A65 | ethoxyresorufin-O-deethylase fluorescence, recombinant membranes (CYP1B1): All CYP1s showed catalytic activity for 7-ER and BFC except for CYP1D1 and CYP3A65
